Laboratory results as given in patent US12617752B2, “Rapidly metabolized lipid compound” (Beijing Jitai Life Sciences Ltd, priority 2023, dated 2026).

Legend:
[1] = Particle size and PDI of lipid nanoparticles by dynamic light scattering; assay type: physicochemical; details: lipid nanoparticles with luciferase mRNA; ionizable lipid/cholesterol/DSPC/DMG-PEG2000 50/38.5/10/1.5 mol%
Protocol: (§1) Lipid nanoparticles were prepared by (1) dissolving and mixing ionizable lipid compounds, cholesterol, phospholipids and polyethylene glycolated lipids in ethanol at (molar percentages) 50%, 38.5%, 10% and 1.5%, respectively; (2) dissolving the mRNA active ingredient in 25 mM sodium acetate solution (pH=4.5); (3) using an automated high-throughput microfluidic system to mix the organic phase containing the lipid mixture and the aqueous phase containing the mRNA component in the flow ratio range of 1:1 to 1:4 at a mixing speed of 10 mL/min to 18 mL/min; (4) the prepared lipid nanoparticles (N/P ratio=6) were diluted with phosphate buffer solution and the nanoparticle solutions were ultrafiltered to the original preparation volume using ultrafiltration tubes (purchased from Millipore) with a cut-off molecular weight of 30 kDa; and (5) the obtained nanoparticles were filtered through a sterile 0.2 μm filter membrane and then stored in a sealed glass vial at low temperature.
(§2) The particle size and particle size dispersity index (PDI) of the prepared lipid nanoparticles were measured using a Zetasizer Pro (purchased from Malvern Instruments Ltd) and a DynaPro NanoStar (purchased from Wyatt) dynamic light scattering instrument. The degree of RNA encapsulation by lipid nanoparticles was characterized by the Encapsulation Efficiency %, which reflects the degree of binding of lipid nanoparticles to RNA fragments. This parameter was measured by the method of Quant-it™ RiboGreen RNA Assay (purchased from Invitrogen). Lipid nanoparticle samples were diluted in TE buffer (10 mM Tris-HCl, 1 mM EDTA, pH=7.5). A portion of the sample solution was removed, to which 0.5% Triton (Triton X-100) was added, and then allowed to stand at 37° C. for 30 minutes. Immediately after the addition of RIBOGREEN® reaction solution, the fluorescence values were read on a Varioskan LUX multifunctional microplate reader (purchased from Thermofisher) at 485 nm for absorption and 528 nm for emission to give the encapsulation efficiency values.

[2] = Encapsulation efficiency of lipid nanoparticles (Quant-it RiboGreen RNA Assay); assay type: physicochemical; details: lipid nanoparticles with luciferase mRNA
Protocol: as §1, §2

C57BL/6 mice = assay: In vivo delivery of luciferase mRNA lipid nanoparticles in mice (bioluminescence imaging); details: intravenous, single dose 0.5 mg/kg luciferase mRNA
Protocol: The delivery effect and safety of nanoparticles encapsulated with luciferase mRNA (Trilink, L-7202) in mice were evaluated. The test mice were SPF-grade C57BL/6 mice, female, 6-8 weeks old, weighing 18-22 g, and were purchased from SPF (Beijing) Biotechnology Co., Ltd. All animals were acclimatized for more than 7 days prior to the experiment, and had free access to food and water during the experiment. The conditions include alternating light and dark for 12/12 h, the indoor temperature of 20-26° C. and the humidity of 40-70%. The mice were randomly grouped. The lipid nanoparticles encapsulated with luciferase mRNA prepared above were injected into mice by intravenous administration at a single dose of 0.5 mg/kg mRNA, and the mice were subjected to in vivo bioluminescence assay using a Small Animal In Vivo Imaging System (IVIS LUMINA III, purchased from PerkinElmer) at 6 h after administration. The assay was performed as follows: D-luciferin solution was prepared in saline at a concentration of 15 mg/mL, and each mouse was given the substrate by intraperitoneal injection. At ten minutes after administration of the substrate, the mice were anesthetized in an anesthesia chamber with isoflurane at a concentration of 2.5%. The anesthetized mice were placed in IVIS for fluorescence imaging, and data acquisition and analysis were performed on the concentrated distribution area of fluorescence.
The in vivo delivery efficiency of lipid nanoparticle carriers was expressed as the mean values of fluorescence intensity and total photon count in different animals within the same subject group, as shown in Table 5-Table 11. Higher values of fluorescence intensity and total photon count indicate higher in vivo delivery efficiency of this mRNA fragment by lipid nanoparticles. The lipid nanoparticles containing the cationic lipids of the present disclosure have good in vivo delivery efficiency.

Row | SMILES | Particle size (nm) [1] [nm] | Particle-size distribution (PDI) [1] | Encapsulation efficiency (%) [2] [%] | Total photon count in vivo at 6 hours after administration (Total Flux) (C57BL/6 mice)
1 | CCCCCCCCCC(=O)OCC1(CCCCCN(CCCCO)CCCCCCCC(=O)OC(CCCCCCCCC)CCCCCCCCC)CC1 [24b] | 83.05 | 0.019 | 94.52 | 7.06E+10
2 | CCCCCCCCCOC(=O)CCCCC(C)(C)CCN(CCO)CCCCCCCC(=O)OC(CCCCCCCC)CCCCCCCC [25a] | 86.99 | 0.051 | 95.62 | 1.33E+11
3 | CCCCCCCCCC(=O)OCCCCCCCN(CCO)CCCCC(C)(C)COC(=O)OCC(CCCCCCC)CCCCCCC [25b] | 94.39 | 0.15 | 95.59 | 1.11E+11
4 | CCCCCCCCCOC(=O)CCCCC(C)(C)CCN(CCO)CCCCCCCC(=O)OCC(CCCCCCC)CCCCCCC [26a] | 106.37 | 0.050 | 91.18 | 1.11E+11
5 | CCCCCCCCCOC(=O)CCCCC(C)(C)CCN(CCO)CCCCCCCC(=O)OCCC(CCCCCC)CCCCCC [27a] | 136.43 | 0.016 | 93.52 | 4.31E+10
6 | CCCCCCCCCCOC(=O)OCCCCCCN(CCO)CCCCCC(C)(C)COC(=O)CC(CCCCCCC)CCCCCCC [27b] | 91.10 | 0.18 | 97.83 | 5.59E+10
7 | CCCCCCCCCCOC(=O)CCCC(C)(C)CCN(CCO)CCCCCCCC(=O)OCCC(CCCCCC)CCCCCC [28a] | 110.30 | 0.018 | 93.90 | 4.30E+10
8 | CCCCCCCCCCCOC(=O)OCCCCCN(CCO)CCCCCC(C)(C)COC(=O)CC(CCCCCCC)CCCCCCC [28b] | 94.55 | 0.16 | 96.19 | 4.18E+10
9 | CCCCCCCCCCOC(=O)OCCCCCN(CCO)CCCCCCC(C)(C)C(=O)OC(CCCCCCCC)CCCCCCCC [31a] | 115.56 | 0.11 | 86.08 | 7.04E+10
10 | CCCCCCCCCOC(=O)OCCCCCCN(CCO)CCCCCCC(C)(C)C(=O)OCC(CCCCCCC)CCCCCCC [33a] | 111.60 | 0.17 | 86.98 | 1.09E+11
11 | CCCCCCCCCOC(=O)OCCCCCCN(CCO)CCCCCCC(C)(C)C(=O)OCCC(CCCCCC)CCCCCC [34a] | 116.67 | 0.12 | 95.73 | 3.14E+10
12 | CCCCCCCCCOC(=O)OCCCCCCN(CCO)CCCCCCC(C)(C)C(=O)OCCCC(CCCCC)CCCCC [35a] | 126.63 | 0.22 | 95.00 | 3.01E+10
13 | CCCCCCCCCCCOC(=O)OCCCCN(CCO)CCCCCCC(C)(C)C(=O)OC(CCCCCCCC)CCCCCCCC [36a] | 104.80 | 0.15 | 92.41 | 2.51E+10
14 | CCCCCCCCCC(=O)OCC1(CCCCCN(CCCCO)CCCCCCOC(=O)OCC(CCCCCCCC)CCCCCCCC)CC1 [36b] | 112.50 | 0.19 | 96.10 | 3.84E+10
15 | CCCCCCCCCCCOC(=O)OCCCCN(CCO)CCCCCCC(C)(C)C(=O)OCC(CCCCCCC)CCCCCCC [37a] | 110.67 | 0.15 | 92.14 | 3.54E+10
16 | CCCCCCCCCCCOC(=O)OCCCCN(CCO)CCCCCCC(C)(C)C(=O)OCCC(CCCCCC)CCCCCC [38a] | 114.03 | 0.13 | 94.51 | 1.39E+10

Second part, led by results:

Row | Particle size (nm) [1] [nm] | Particle-size distribution (PDI) [1] | Encapsulation efficiency (%) [2] [%] | SMILES | Total photon count in vivo at 6 hours after administration (Total Flux) (C57BL/6 mice)
17 | 88.59 | 0.012 | 97.30 | CCCCCCCCCCOC(=O)CCC(C)(C)CCCCN(CCCCO)CCCCCCCC(=O)OC(CCCCCCCCC)CCCCCCCCC [29a] | 5.46E+10
18 | 112.43 | 0.10 | 96.28 | CCCCCCCCCOC(=O)OCCCCCCCN(CCO)CCCCCC(C)(C)COC(=O)CC(CCCCCCC)CCCCCCC [29b] | 3.52E+10
19 | 115.83 | 0.08 | 95.02 | CCCCCCCCCCOC(=O)OCCCCCCN(CCCCO)CCCCCC(C)(C)COC(=O)CC(CCCCCCC)CCCCCCC [30b] | 4.03E+10
20 | 118.73 | 0.07 | 95.73 | CCCCCCCCCCCOC(=O)OCCCCCN(CCCCO)CCCCCC(C)(C)COC(=O)CC(CCCCCCC)CCCCCCC [31b] | 1.87E+10
21 | 129.00 | 0.10 | 83.51 | CCCCCCCCCOC(=O)OCCCCCCN(CCCO)CCCCCCC(C)(C)C(=O)OC(CCCCCCCC)CCCCCCCC [32a] | 1.24E+10
22 | 116.50 | 0.16 | 95.31 | CCCCCCCCCOC(=O)OCCCCCCCN(CCCCO)CCCCCC(C)(C)COC(=O)CC(CCCCCCC)CCCCCCC [32b] | 3.52E+10
23 | 85.80 | 0.15 | 94.85 | CCCCCCCCCC(=O)OCC(C)(C)CCCCCN(CCO)CCCCCCOC(=O)OCC(CCCCCCCC)CCCCCCCC [33b] | 8.23E+10
24 | 85.20 | 0.19 | 97.61 | CCCCCCCCCC(=O)OCC1(CCCCCN(CCO)CCCCCCOC(=O)OCC(CCCCCCCC)CCCCCCCC)CC1 [34b] | 2.78E+10
25 | 100.40 | 0.21 | 96.35 | CCCCCCCCCC(=O)OCC(C)(C)CCCCCN(CCCCO)CCCCCCOC(=O)OCC(CCCCCCCC)CCCCCCCC [35b] | 3.77E+10
26 | 83.72 | 0.16 | 95.15 | CCCCCCCC(CCCCCCC)CCOC(=O)OCCCCCCN(CCO)CCCCCC(C)(C)COC(=O)CCC(CCCCCC)CCCCCC [37b] | 3.72E+10
27 | 102.50 | 0.11 | 98.29 | CCCCCCCCCC(=O)OCC(C)(C)CCCCCN(CCCCCCCC(=O)OC(CCCCCCCC)CCCCCCCC)C(=O)SCCCCN(C)C [38b] | 1.49E+10
